pKi: −log10 of the molar value.
How the values were obtained:
[1] = tested on: MOLP-8 human multiple myeloma cell line; test: MOLP8 Caspase-Glo 3/7 apoptosis induction assay; type: cell-based; settings: MOLP-8 cells, 2 hours at 37° C., 30 μM highest conc., averaged over all runs on all batches
Source text: MCL-1 is a regulator of apoptosis and is highly over-expressed in tumor cells that escape cell death. The assay evaluates the cellular potency of small-molecule compounds targeting regulators of the apoptosis pathway, primarily MCL-1, Bfl-1, Bcl-2, and other proteins of the Bcl-2 family. Protein-protein inhibitors disrupting the interaction of anti-apoptotic regulators with BH3-domain proteins initiate apoptosis.
The Caspase-Glo® 3/7 Assay is a luminescent assay that measures caspase-3 and -7 activities in purified enzyme preparations or cultures of adherent or suspension cells. The assay provides a proluminescent caspase-3/7 substrate, which contains the tetrapeptide sequence DEVD. This substrate is cleaved to release aminoluciferin, a substrate of luciferase used in the production of light. Addition of the single Caspase-Glo® 3/7 Reagent in an “add-mix-measure” format results in cell lysis, followed by caspase cleavage of the substrate and generation of a “glow-type” luminescent signal.
This assay uses the MOLP-8 human multiple myeloma cell line, which is sensitive to MCL-1 inhibition.
Cell cultures were maintained between 0.2 and 2.0×10^6 cells/mL. The cells were harvested by collection in 50 mL conical tubes. The cells were then pelleted at 500 g for 5 mins before removing supernatant and resuspension in fresh pre-warmed culture medium. The cells were counted and diluted as needed.
The assay reagent was prepared by transferring the buffer solution to the substrate vial and mixing. The solution may be stored for up to 1 week at 4° C. with negligible loss of signal.
Compounds were delivered in assay-ready plates (Proxiplate) and stored at −20° C.
Assays always include 1 reference compound plate containing reference compounds. The plates were spotted with 40 nL of compounds (0.5% DMSO final in cells; serial dilution; 30 μM highest conc. 1/3 dilution, 10 doses, duplicates). The compounds were used at room temperature and 4 μL of pre-warmed media was added to all wells except column 2 and 23. The negative control was prepared by adding 1% DMSO in media. The positive control was prepared by adding the appropriate positive control compound in final concentration of 60 μM in media. The plate was prepared by adding 4 μL negative control to column 23, 4 μL positive control to column 2 and 4 μL cell suspension to all wells in the plate. The plate with cells was then incubated at 37° C. for 2 hours. The assay signal reagent is the Caspase-Glo solution described above, and 8 μL was added to all wells. The plates were then sealed and measured after 30 minutes.
The activity of a test compound was calculated as percent change in apoptosis induction as follows:
[formula] [formula] % Effect (AC50)=100−((sample−LC)/(HC−LC))*100
% Control=(sample/HC)*100
% Control min=(sample−LC)/(HC−LC)*100

[2] = molecular target: Myeloid Cell Leukemia 1 (Mcl-1) (Homo sapiens, UniProt Q07820); test: Terbium labeled Mcl-1 HTRF binding assay with Cy5-labeled BIM BH3 peptide; settings: Ki=IC50/(1+[L]/Kd), [L]=8 nM, Kd=10 nM, 60 min incubation at room temperature, read-out: Tb-MCL1 Ki
Chain of Myeloid Cell Leukemia 1 (Mcl-1) (Q07820 whole entry): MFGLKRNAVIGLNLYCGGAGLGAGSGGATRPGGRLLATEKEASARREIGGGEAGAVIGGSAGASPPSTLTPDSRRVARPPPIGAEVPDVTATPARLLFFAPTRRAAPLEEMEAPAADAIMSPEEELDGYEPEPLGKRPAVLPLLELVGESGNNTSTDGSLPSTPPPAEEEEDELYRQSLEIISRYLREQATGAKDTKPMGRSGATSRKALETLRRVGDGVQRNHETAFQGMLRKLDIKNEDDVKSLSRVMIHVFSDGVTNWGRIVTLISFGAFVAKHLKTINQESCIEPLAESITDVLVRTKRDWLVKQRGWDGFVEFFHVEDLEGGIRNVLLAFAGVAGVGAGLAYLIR
Procedure: Terbium labeled Myeloid Cell Leukemia 1 (Mcl-1) homogeneous time-resolved fluorescence (HTRF) binding assay utilizing the BIM BH3 peptide (H2N-(C/Cy5Mal) WIAQELRRIGDEFN-OH) as the binding partner for Mcl-1.
This assay evaluated inhibition of the BH3 domain: Mcl-1 interaction by measuring the displacement of Cy5-labeled BIM BH3 peptide (H2N—(C/Cy5Mal) WIAQELRRIGDEFN-OH) in the HTRF assay format.
The following assay and stock buffers were prepared for use in the assay: (a) Stock buffer: 10 mM Tris-HCl, pH=7.5+150 mM NaCl, filtered, sterilized, and stored at 4° C.; and (b) 1×assay buffer, where the following ingredients were added fresh to stock buffer: 2 mM dithiothreitol (DTT), 0.0025% Tween-20, 0.1 mg/mL bovine serum albumin (BSA). The 1×Tb-Mcl-1+Cy5 Bim peptide solution was prepared by diluting the protein stock solution using the 1×assay buffer (b) to 25 pM Tb-Mcl-1 and 8 nM Cy5 Bim peptide.
Using the Acoustic ECHO, 100 nL of 100×test compound(s) were dispensed into individual wells of a white 384-well Perkin Elmer Proxiplate, for a final compound concentration of 1× and final DMSO concentration of 1%. Inhibitor control and neutral control (NC, 100 nL of 100% DMSO) were stamped into columns 23 and 24 of assay plate, respectively. Into each well of the plate was then dispensed 10 μL of the 1×Tb-Mcl-1+Cy5 Bim peptide solution. The plate was centrifuged with a cover plate at 1000 rpm for 1 minute, then incubated for 60 minutes at room temperature with plates covered.
The TR-FRET signal was read on an BMG PHERAStar FSX MicroPlate Reader at room temperature using the HTRF optic module (HTRF: excitation: 337 nm, light source: laser, emission A: 665 nm, emission B: 620 nm, integration start: 60 μs, integration time: 400 μs).
The BMG PHERAStar FSX MicroPlate Reader was used to measure fluorescence intensity at two emission wavelengths—665 nm and 620 nm—and report relative fluorescence units (RFU) for both emissions, as well as a ratio of the emissions (665 nm/620 nm)*10,000. The RFU values were normalized to percent inhibition as follows:
% inhibition=(((NC−IC)−(compound−IC))/(NC−IC))*100
where IC (inhibitor control, low signal)=mean signal of 1×Tb-MCl-1+Cy5 Bim peptide+inhibitor control or 100% inhibition of Mcl-1; NC (neutral control, high signal)=mean signal 1×Tb-MCl-1+Cy5 Bim peptide with DMSO only or 0% inhibition
An 11-point dose response curve was generated to determine IC50 values (using GenData) based on the following equation:
Y=Bottom+(Top−Bottom)/(1+10^((log IC50−X)*HillSlope))
where Y=% inhibition in the presence of X inhibitor concentration; Top=100% inhibition derived from the IC (mean signal of Mcl-1+inhibitor control); Bottom=0% inhibition derived from the NC (mean signal of Mcl-1+DMSO); Hillslope=Hill coefficient; and IC50=concentration of compound with 50% inhibition in relation to top/neutral control (NC).
In this assay [L]=8 nM and Kd=10 nM
Representative compounds of the present invention were tested according to the procedure as described above, with results as listed in the Table below (n.d. means not determined).

Compound	AC50 [1]	pKi [2]	AC50 ([1]; Homo sapiens, MOLP-8, 2 h)
COCCOCCn1c(C(=O)O)c2c3ccc(Cl)c(c31)-c1c(cnn1C)CSCc1cc(n(C)n1)CCc1cc(c3ccc(F)cc3c1)OCCC2 (single isomer, unassigned) [Compound 22]	22 nM	10.54	–
Cn1nc2cc1CSc1cc(c3ccccc3c1)OCCCc1c(C(=O)O)n(C)c3c(c(Cl)ccc13)-c1c(cnn1C)CSC2 (single isomer, unassigned) [Compound 6]	–	10.21	58 nM
COCCOCc1nn(C)c2c1CSCc1cc(n(C)n1)CCc1cc(c3ccccc3c1)OCCCc1c(C(=O)O)n(C)c3c-2c(Cl)ccc13 (single isomer, unassigned) [Compound 3]	> 30000 nM	7.01	–
CCn1c(C(=O)O)c2c3ccc(Cl)c(c31)-c1c(cnn1C)CCCc1cc(n(C)n1)CCc1cc(c3ccc(F)cc3c1)OCCC2 (single isomer, unassigned) [Compound 14]	3460 nM	8.21	–
COCCOCc1nn(C)c2c1CSCc1cc(n(C)n1)CCc1cc(c3ccc(F)cc3c1)OCCCc1c(C(=O)O)n(C)c3c-2c(Cl)ccc13 (single isomer, unassigned) [Compound 8]	15 nM	10.60	–
Cn1nc2cc1CCc1cc(c3ccc(F)cc3c1)OCCCc1c(C(=O)O)[nH]c3c(c(Cl)ccc13)-c1c(cnn1C)CSC2 (single isomer, unassigned) [Compound 25]	4130 nM	9.09	–
CN(C)CCn1c(C(=O)O)c2c3ccc(Cl)c(c31)-c1c(cnn1C)CSCc1cc(n(C)n1)CCc1cc(c3ccc(F)cc3c1)OCCC2 (single isomer, unassigned) [Compound 27]	–	10.51	117 nM
COCCOCc1nn(C)c2c1CSCc1cc(n(C)n1)CCc1cc(c3ccccc3c1)OCCCc1c(C(=O)O)n(C)c3c-2c(Cl)ccc13 (single isomer, unassigned) [Compound 4]	46 nM	10.64	–
Cn1nc2cc1CCc1cc(c3ccc(F)cc3c1)OCCCc1c(C(=O)O)n(CCN3CCOCC3)c3c(c(Cl)ccc13)-c1c(cnn1C)CSC2 (single isomer, unassigned) [Compound 21]	82 nM	10.70	–
COCCn1c(C(=O)O)c2c3ccc(Cl)c(c31)-c1c(cnn1C)CSCc1cc(n(C)n1)CCc1cc(c3ccc(F)cc3c1)OCCC2 (single isomer, unassigned) [Compound 23]	27 nM	10.62	–
Cn1nc2cc1CCc1cc(c3ccc(F)cc3c1)OCCCc1c(C(=O)O)[nH]c3c(c(Cl)ccc13)-c1c(cnn1C)CSC2 (single isomer, unassigned) [Compound 26]	235 nM	10.35	–
COCCn1c(C(=O)O)c2c3ccc(Cl)c(c31)-c1c(cnn1C)CSCc1cc(n(C)n1)CCc1cc(c3ccc(F)cc3c1)OCCC2 (single isomer, unassigned) [Compound 24]	2530 nM	8.67	–
COCCOCCc1nn(C)c2c1CSCc1cc(n(C)n1)CCc1cc(c3ccc(F)cc3c1)OCCCc1c(C(=O)O)n(C)c3c-2c(Cl)ccc13 (single isomer, unassigned) [Compound 18]	2430 nM	8.68	–
Cc1nn(C)c2c1CSCc1cc(n(C)n1)CCc1cc(c3ccc(F)cc3c1)OCCCc1c(C(=O)O)n(C)c3c-2c(Cl)ccc13 (single isomer, unassigned) [Compound 10a]	68 nM	10.39	–
COCCOCCc1nn(C)c2c1CSCc1cc(n(C)n1)CCc1cc(c3ccc(F)cc3c1)OCCCc1c(C(=O)O)n(C)c3c-2c(Cl)ccc13 (single isomer, unassigned) [Compound 17]	15 nM	10.96	–
COCCOCc1nn(C)c2c1CSCc1cc(n(C)n1)CCc1cc(c3ccc(F)cc3c1)OCCCc1c(C(=O)O)n(C)c3c-2c(Cl)ccc13 (single isomer, unassigned) [Compound 7]	20400 nM	7.28	–
Cn1nc2cc1CCc1cc(c3ccc(F)cc3c1)OCCCc1c(C(=O)O)n(CCN3CCOCC3)c3c(c(Cl)ccc13)-c1c(cnn1C)CSC2 (single isomer, unassigned) [Compound 19]	29500 nM	7.30	–
COCCOCc1nn(C)c2c1CSCc1cc(n(C)n1)CCc1cc(c3ccc(F)c(F)c3c1)OCCCc1c(C(=O)O)n(C)c3c-2c(Cl)ccc13 (single isomer, unassigned) [Compound 15]	1400 nM	8.59	–
Cc1nn(C)c2c1CSCc1cc(n(C)n1)CSc1cc(c3ccccc3c1)OCCCc1c(C(=O)O)n(C)c3c-2c(Cl)ccc13 (single isomer, unassigned) [Compound 2]	54 nM	10.41	–
Cc1nn(C)c2c1CSCc1cc(n(C)n1)CCc1cc(c3ccc(F)cc3c1)OCCCc1c(C(=O)O)n(C)c3c-2c(Cl)ccc13 (single isomer, unassigned) [Compound 10]	10 nM	9.51	–
COCCOCc1nn(C)c2c1CSCc1cc(n(C)n1)CCc1cc(c3ccc(F)c(F)c3c1)OCCCc1c(C(=O)O)n(C)c3c-2c(Cl)ccc13 (single isomer, unassigned) [Compound 16]	13 nM	10.68	–
CCn1c(C(=O)O)c2c3ccc(Cl)c(c31)-c1c(cnn1C)CCCc1cc(n(C)n1)CCc1cc(c3ccc(F)cc3c1)OCCC2 (single isomer, unassigned) [Compound 13]	22 nM	10.29	–
COCCOCCn1c(C(=O)O)c2c3ccc(Cl)c(c31)-c1c(cnn1C)CSCc1cc(n(C)n1)CCc1cc(c3ccc(F)cc3c1)OCCC2 (single isomer, unassigned) [Compound 20]	30000 nM	6.70	–
Cc1nn(C)c2c1CSCc1cc(n(C)n1)CSc1cc(c3ccccc3c1)OCCCc1c(C(=O)O)n(C)c3c-2c(Cl)ccc13 (single isomer, unassigned) [Compound 1]	1220 nM	9.13	–
